Laboratory results taken from the NIST ThermoML archive (doi:10.1021/je800998u).
Numbers after ± are expanded uncertainties.

Assay: molar heat capacity at constant pressure
Conditions: 101.33 kPa, Small (less than 1 g) adiabatic calorimetry

CC(C)COCC(C)C [diisobutyl ether]
Conditions	molar heat capacity at constant pressure [J/K/mol]
140.67 K, Crystal 2	147.66 ± 0.79
141.68 K, Crystal 2	148.47 ± 0.79
142.69 K, Crystal 2	150.03 ± 0.8
143.69 K, Crystal 2	151.09 ± 0.8
144.7 K, Crystal 2	152.64 ± 0.81
145.71 K, Crystal 2	153.6 ± 0.81
146.72 K, Crystal 2	154.66 ± 0.82
147.73 K, Crystal 2	156 ± 0.82
148.74 K, Crystal 2	157.59 ± 0.83
149.74 K, Crystal 2	159.31 ± 0.84
150 K, Crystal 2	158.9 ± 0.8
150.75 K, Crystal 2	160.48 ± 0.84
151.76 K, Crystal 2	162.28 ± 0.85
152.76 K, Crystal 2	163.63 ± 0.85
153.77 K, Crystal 2	165.04 ± 0.86
154.77 K, Crystal 2	166.47 ± 0.87
155.77 K, Crystal 2	168.44 ± 0.87
156.77 K, Crystal 2	170.7 ± 0.88
157.77 K, Crystal 2	172.77 ± 0.89
158.77 K, Crystal 2	174.55 ± 0.9
159.76 K, Crystal 2	176.89 ± 0.91
160 K, Crystal 2	171.1 ± 0.9
160.22 K, Crystal 2	177.95 ± 0.91
161.05 K, Crystal 2	179.83 ± 0.92
161.87 K, Crystal 2	182.1 ± 0.93
162.69 K, Crystal 2	184.81 ± 0.94
163.5 K, Crystal 2	188 ± 0.95
164.29 K, Crystal 2	190.62 ± 0.97
165.08 K, Crystal 2	194.31 ± 0.98
165.86 K, Crystal 2	198.38 ± 1
166.64 K, Crystal 2	203.33 ± 1
167.41 K, Crystal 2	209.11 ± 1.1
168.16 K, Crystal 2	214.73 ± 1.1
168.9 K, Crystal 2	223.05 ± 1.1
169.63 K, Crystal 2	234.85 ± 1.4
170.31 K, Crystal 2	282.57 ± 1.9
170.71 K, Crystal 1	172.2 ± 0.9
170.71 K, Crystal 2	184.2 ± 0.9
171.96 K, Crystal 1	180.54 ± 0.92
172.76 K, Crystal 1	180.42 ± 0.92
173.54 K, Crystal 1	180.19 ± 0.92
174.34 K, Crystal 1	181.2 ± 0.93
175.14 K, Crystal 1	182.92 ± 0.93
175.93 K, Crystal 1	183.75 ± 0.94
176.72 K, Crystal 1	185.64 ± 0.94
177.5 K, Crystal 1	187.45 ± 0.95
178.28 K, Crystal 1	189.66 ± 0.96
179.05 K, Crystal 1	192.53 ± 0.97
179.81 K, Crystal 1	195.2 ± 0.98
180 K, Crystal 1	193.8 ± 1
190.4 K, Crystal 1	218 ± 1.1
190.4 K, Liquid	241.1 ± 1.2
200 K, Liquid	243.7 ± 1.2
205.51 K, Liquid	245.31 ± 1.2
207.14 K, Liquid	245.51 ± 1.2
208.62 K, Liquid	246.05 ± 1.2
210 K, Liquid	246.3 ± 1.2
210.09 K, Liquid	246.27 ± 1.2
211.57 K, Liquid	246.56 ± 1.2
213.04 K, Liquid	247.06 ± 1.2
214.48 K, Liquid	247.32 ± 1.2
215.95 K, Liquid	247.78 ± 1.2
217.42 K, Liquid	248.16 ± 1.2
218.89 K, Liquid	248.58 ± 1.2
220 K, Liquid	248.9 ± 1.2
220.35 K, Liquid	248.91 ± 1.2
221.82 K, Liquid	249.16 ± 1.2
223.28 K, Liquid	249.85 ± 1.2
224.74 K, Liquid	250.34 ± 1.2
226.2 K, Liquid	250.85 ± 1.2
227.65 K, Liquid	251.29 ± 1.2
229.11 K, Liquid	251.85 ± 1.2
230 K, Liquid	251.9 ± 1.2
230.56 K, Liquid	252.2 ± 1.2
232.02 K, Liquid	252.69 ± 1.2
233.46 K, Liquid	252.85 ± 1.2
234.91 K, Liquid	253.44 ± 1.2
236.36 K, Liquid	253.83 ± 1.2
237.75 K, Liquid	254.25 ± 1.2
239.2 K, Liquid	254.81 ± 1.2
240 K, Liquid	255 ± 1.2
240.64 K, Liquid	255.42 ± 1.2
242.08 K, Liquid	255.9 ± 1.2
243.52 K, Liquid	256 ± 1.2
244.96 K, Liquid	256.76 ± 1.2
246.39 K, Liquid	256.99 ± 1.2
247.83 K, Liquid	257.45 ± 1.2
249.26 K, Liquid	257.99 ± 1.2
250 K, Liquid	258.3 ± 1.2
250.69 K, Liquid	258.39 ± 1.2
252.11 K, Liquid	258.84 ± 1.2
253.54 K, Liquid	259.49 ± 1.2
254.96 K, Liquid	259.95 ± 1.2
256.39 K, Liquid	260.62 ± 1.2
257.8 K, Liquid	260.96 ± 1.2
259.22 K, Liquid	261.75 ± 1.2
260 K, Liquid	261.8 ± 1.2
260.56 K, Liquid	261.97 ± 1.2
261.97 K, Liquid	262.87 ± 1.2
263.39 K, Liquid	262.95 ± 1.2
264.79 K, Liquid	263.61 ± 1.2
266.2 K, Liquid	263.86 ± 1.3
267.6 K, Liquid	264.22 ± 1.3
269 K, Liquid	264.8 ± 1.3
270 K, Liquid	265.3 ± 1.3
270.4 K, Liquid	265.39 ± 1.3
271.8 K, Liquid	265.93 ± 1.3
273.19 K, Liquid	266.68 ± 1.3
274.58 K, Liquid	266.81 ± 1.3
275.97 K, Liquid	267.53 ± 1.3
277.36 K, Liquid	267.85 ± 1.3
278.74 K, Liquid	268.3 ± 1.3
280 K, Liquid	269 ± 1.3
281.5 K, Liquid	269.6 ± 1.3
282.78 K, Liquid	270.45 ± 1.3
284.16 K, Liquid	270.8 ± 1.3
285.53 K, Liquid	271.08 ± 1.3
286.9 K, Liquid	271.46 ± 1.3
288.26 K, Liquid	271.98 ± 1.3
289.62 K, Liquid	272.75 ± 1.3
290 K, Liquid	272.8 ± 1.3
290.98 K, Liquid	273.36 ± 1.3
292.34 K, Liquid	273.73 ± 1.3
293.69 K, Liquid	274.04 ± 1.3
295.04 K, Liquid	275.21 ± 1.3
296.39 K, Liquid	275.08 ± 1.3
297.73 K, Liquid	275.64 ± 1.3
298.15 K, Liquid	276.08 ± 1.3
299.07 K, Liquid	276.44 ± 1.3
300 K, Liquid	276.8 ± 1.3
300.41 K, Liquid	277.1 ± 1.3
301.75 K, Liquid	277.51 ± 1.3
303.04 K, Liquid	278.07 ± 1.3
304.14 K, Liquid	278.56 ± 1.3
305.42 K, Liquid	279.01 ± 1.3
306.7 K, Liquid	279.35 ± 1.3
307.97 K, Liquid	279.87 ± 1.3
309.24 K, Liquid	280.81 ± 1.3
310 K, Liquid	280.8 ± 1.3
310.5 K, Liquid	280.87 ± 1.3
311.76 K, Liquid	281.46 ± 1.3
313.02 K, Liquid	282.03 ± 1.3
314.27 K, Liquid	282.55 ± 1.3
315.52 K, Liquid	282.93 ± 1.3
316.76 K, Liquid	283.81 ± 1.3
318 K, Liquid	284.25 ± 1.3
319.23 K, Liquid	284.87 ± 1.3
320 K, Liquid	285 ± 1.3
320.46 K, Liquid	285.2 ± 1.3
321.69 K, Liquid	285.88 ± 1.3
322.91 K, Liquid	286.38 ± 1.4
323.9 K, Liquid	286.65 ± 1.4
325.11 K, Liquid	287.21 ± 1.4
326.32 K, Liquid	287.74 ± 1.4
327.53 K, Liquid	288.35 ± 1.4
328.73 K, Liquid	288.89 ± 1.4
329.92 K, Liquid	289.24 ± 1.4
330 K, Liquid	289.5 ± 1.4
331.11 K, Liquid	289.99 ± 1.4
332.3 K, Liquid	290.62 ± 1.4
333.48 K, Liquid	291.36 ± 1.4
334.66 K, Liquid	291.41 ± 1.4
335.83 K, Liquid	292.26 ± 1.4
337 K, Liquid	292.85 ± 1.4
338.16 K, Liquid	293.71 ± 1.4
339.32 K, Liquid	294.5 ± 1.4
340 K, Liquid	294.7 ± 1.4
340.48 K, Liquid	295.14 ± 1.4
343.62 K, Liquid	297.13 ± 1.4
344.76 K, Liquid	297.38 ± 1.4
345.9 K, Liquid	297.62 ± 1.4
347.04 K, Liquid	298.5 ± 1.4
348.17 K, Liquid	299 ± 1.4
350 K, Liquid	300 ± 1.4
350.41 K, Liquid	300.11 ± 1.4
351.51 K, Liquid	300.37 ± 1.4
352.61 K, Liquid	301.47 ± 1.4
353.7 K, Liquid	302.2 ± 1.4
354.79 K, Liquid	302.27 ± 1.4
355.88 K, Liquid	302.92 ± 1.4
356.96 K, Liquid	303.07 ± 1.4
358.04 K, Liquid	303.49 ± 1.4
359.11 K, Liquid	304.07 ± 1.4
359.83 K, Liquid	304.07 ± 1.4
360 K, Liquid	304.4 ± 1.4
360.9 K, Liquid	304.89 ± 1.4
361.96 K, Liquid	305.2 ± 1.4
363.02 K, Liquid	305.35 ± 1.4
364.07 K, Liquid	305.71 ± 1.4
365.12 K, Liquid	305.76 ± 1.4
366.14 K, Liquid	306.97 ± 1.4
367.16 K, Liquid	307.23 ± 1.4
368.17 K, Liquid	308 ± 1.4
369.17 K, Liquid	308.72 ± 1.4
370 K, Liquid	308.9 ± 1.4
370.15 K, Liquid	309.38 ± 1.4
371.14 K, Liquid	309.88 ± 1.4
372.11 K, Liquid	310.26 ± 1.4
